GI50 data for eight compounds are collected here from ChEMBL document CHEMBL1131395, “Novel antineoplastic agents with efficacy against multidrug resistant tumor cells” (1998).

Assay type in all cases: functional
One assay concerns CAKI-1. The assay can be described thus: Compound was tested in vitro for growth inhibition of CAKI-1 cells derived from human renal tumor.
In the next assay the test system is COLO 205. The experiment in a line: Compound was tested in vitro for growth inhibition of COLO 205 cells derived from human colon tumor.
Another assay relates to CCRF-CEM. The experiment in a line: Compound was tested in vitro for growth inhibition of CCRF-CEM cells derived from human leukemia.
The next assay concerns MCF7. The assay can be described thus: Compound was tested in vitro for growth inhibition of MCF-7 cells derived from human breast tumor.
A further assay deals with MDA-N. The assay can be described thus: Compound was tested in vitro for growth inhibition of MDA-N cells derived from human breast tumor.
The test system of another assay is NCI/ADR-RES. The assay can be described thus: Compound was tested in vitro for growth inhibition of MCF-7/ADR cells that exhibit MDR phenotype. The settings on record: Homo sapiens.
The test system of the next assay is OVCAR-8. The assay can be described thus: Compound was tested in vitro for growth inhibition of OVCAR-8 cells derived from human ovarian tumor.
The subject of the next assay is NCI-H522. The assay can be described thus: Compound was tested in vitro for growth inhibition of […] cells derived from human lung tumor.
In a further assay the test system is P388. The assay can be described thus: Compound was tested in vitro for growth inhibition of murine leukemic P388 cells. The settings on record: Mus musculus.
Another assay has as its system P388/ADR. The experiment in a line: Compound was tested in vitro for growth inhibition of murine leukemic P388/ADR cells that exhibit MDR phenotype. The settings on record: Mus musculus.
A further assay relates to SF-295. The experiment in a line: Compound was tested in vitro for growth inhibition of SF 295 cells derived from CNS tumor. As to conditions: Homo sapiens.
A further assay deals with SK-MEL-5. The experiment in a line: Compound was tested in vitro for growth inhibition of SK-MEL-5 cells derived from human melanoma.
Another assay relates to PC-3. The assay can be described thus: Compound was tested in vitro for growth inhibition of PC 3 cells derived from human prostate tumor.

Some results are limits rather than exact numbers.

Turning to `CN(C)c1ccc(NS(=O)(=O)c2c(F)c(F)c(F)c(F)c2F)cc1`, the GI50 with CAKI-1 is 417 nM; in the assay with COLO 205, 220 nM; in the assay with CCRF-CEM, 320 nM; in the assay with MCF7, 34 nM; in the assay on MDA-N it was 30 nM; in the assay on NCI/ADR-RES, 96 nM. The GI50 with OVCAR-8 was 372 nM; with NCI-H522 it was 58 nM; in the assay on P388, 27 nM; with P388/ADR it was 36 nM; with SF-295 it was 501 nM; with SK-MEL-5 it was 183 nM. Besides, the GI50 in the assay with PC-3 was 525 nM.

For the compound `COc1ccc(NS(=O)(=O)c2c(F)c(F)c(F)c(F)c2F)cc1`, the GI50 in the assay on CAKI-1 was 56 nM; in the assay with COLO 205, below 10 nM; with CCRF-CEM it was below 10 nM; with MCF7, 29 nM; in the assay on MDA-N it was 41 nM; in the assay with NCI/ADR-RES, 58 nM. The GI50 is 50 nM in the assay with OVCAR-8; below 10 nM with NCI-H522; 12 nM with P388; 34 nM with P388/ADR; 11 nM with SF-295; below 10 nM in the assay on SK-MEL-5. The same compound registered a GI50 with PC-3 below 10 nM.

Regarding `O=S(=O)(Nc1ccc2[nH]ccc2c1)c1c(F)c(F)c(F)c(F)c1F`, the GI50 in the assay on CAKI-1 is 72 nM; with COLO 205, 14 nM; in the assay on CCRF-CEM it was below 10 nM; with MCF7, 28 nM; in the assay with MDA-N, 21 nM; in the assay with NCI/ADR-RES it was 115 nM. Moreover, the GI50 with OVCAR-8 is 50 nM; in the assay with NCI-H522 it was below 10 nM; with P388, 12 nM; with P388/ADR, 32 nM; in the assay with SF-295, 40 nM; in the assay on SK-MEL-5, 13 nM. For the same compound, in the assay on PC-3, the GI50 amounted to 35 nM.

`Cc1ccc(NS(=O)(=O)c2c(F)c(F)c(F)c(F)c2F)cc1C`: the concentration for 50% growth inhibition (GI50) came out at 479 nM in the assay on CAKI-1; 220 nM in the assay with COLO 205; 68 nM in the assay on CCRF-CEM; 120 nM with MCF7; 123 nM in the assay with MDA-N; 320 nM with NCI/ADR-RES. In addition, the GI50 with OVCAR-8 was determined as 437 nM; in the assay on NCI-H522, 49 nM; in the assay with P388, 37 nM; in the assay with P388/ADR it was 110 nM; with SF-295, 479 nM; in the assay with SK-MEL-5, 151 nM. In the assay on PC-3, this compound registered a GI50 of 468 nM.

As to `CC[C@]1(O)C[C@@H]2CN(CCc3c([nH]c4ccccc34)[C@@](C(=O)OC)(c3cc4c(cc3OC)N(C)[C@H]3[C@@](O)(C(=O)OC)[C@H](OC(C)=O)[C@]5(CC)C=CCN6CC[C@]43[C@@H]65)C2)C1` [VINBLASTINE], the GI50 worked out at 2.3 nM in the assay on MCF7, 350 nM in the assay with NCI/ADR-RES, 4.1 nM in the assay on P388 and 470 nM in the assay with P388/ADR.

`CC(=O)O[C@H]1C(=O)[C@@]2(C)[C@H]([C@H](OC(=O)c3ccccc3)[C@]3(O)C[C@H](OC(=O)[C@H](O)[C@@H](NC(=O)c4ccccc4)c4ccccc4)C(C)=C1C3(C)C)[C@]1(OC(C)=O)CO[C@@H]1C[C@@H]2O` [PACLITAXEL]: the GI50 is 1.1 nM in the assay with MCF7, above 15000 nM in the assay with NCI/ADR-RES, 16 nM in the assay on P388 and above 15000 nM in the assay with P388/ADR.

As to `O=S(=O)(Nc1ccc2c(c1)OCCO2)c1c(F)c(F)c(F)c(F)c1F`, the GI50 stood at 63 nM in the assay with CAKI-1; 19 nM in the assay on COLO 205; 51 nM with CCRF-CEM; 430 nM in the assay with MCF7; 40 nM in the assay with MDA-N; 410 nM in the assay on NCI/ADR-RES. For the same compound, the GI50 in the assay with OVCAR-8 turned out to be 91 nM; in the assay on NCI-H522, 26 nM; in the assay on P388, 140 nM; in the assay on P388/ADR, 340 nM; in the assay with SF-295, 54 nM; in the assay on SK-MEL-5, 20 nM. This compound yielded a GI50 with PC-3 of 62 nM.

With `COc1ccc(NS(=O)(=O)c2ccc(F)c(F)c2F)cc1`, the GI50 in the assay on CAKI-1 came to 5500 nM; in the assay with COLO 205 it was 1300 nM; in the assay on CCRF-CEM, 600 nM; with MDA-N it was 1400 nM; in the assay on OVCAR-8, 5000 nM; in the assay on NCI-H522 it was 371 nM. The GI50 stood at 2700 nM in the assay with SF-295, 1000 nM in the assay with SK-MEL-5 and 3200 nM with PC-3.

The term GI50 denotes the concentration giving 50% growth inhibition. Lower therefore signals more potent growth inhibition.
